The source of these data is patent US9273088B2, “Ginsenoside derivative compounds and the use thereof in protection against ischemia/reperfusion injury” (Macau University of Science and Technology, priority 2013, dated 2016).

Data set [1] has as its system H9c2 cells. The data set is described as follows: Hypoxia/reoxygenation (H/R) injury model, MTT cell viability assay. The format is cell-based, rat. As to conditions: for protective effect compared with the positive control drug: vs diazoxide 50 μM; for protective effect compared with the positive control drug / order of cardioprotective effects / viability of cardiomyocyte cells after H/R (ratio of viable cells relative to normoxia control): hypoxia/reoxygenation; for order of cardioprotective effects: rank order of the 7 derivative compounds; for viability of cardiomyocyte cells after H/R (ratio of viable cells relative to normoxia control): mean±SEM. The protocol: (§1) Embryonic rat heart derived cell line H9c2 (2-1), shorted in H9c2 cells, was purchased from ATCC (CRL-1446), which is a permanent cell line and derived from embryonic BDIX rat ventricular heart tissue. Dulbecco's Modified Eagle Medium, Fetal Bovine Serum, and Penicillin-Streptomycin-Glutamine, 2.5% Trypsin/EDTA solution, Phosphate-buffered saline from GIBCO® (Invitrogen™) were used.
(§2) H9c2 cells were cultured in DMEM medium supplemented with 10% fetal bovine serum, 1% glutamine, 50 U/ml penicillin and […] streptomycin. The culture atmosphere for H9c2 cells was 95% air with 5% carbon dioxide (CO2) at 37.0° C. The medium was replaced every 2-3 days. A stock of cells was grown in a 100 cm^2 culture dish and split before confluence at a subcultivation ratio of 1:4. Cells used for experiments were seeded at a density of 1.0×10^4 cells/well in a 96-well culture plate, and cells in each well were allowed to grow to 60-80% confluence within 24 h prior to drug treatment.
After treatment with desired concentrations of drug for 3 h, the cells were washed twice with Krebs-Ringer Bicarbonate buffer (KRB; 115 mM NaCl, 4.7 mM KCl, 2.5 mM CaCl2, 1.2 mM KH2PO4, 1.2 mM MgSO4, 24 mM NaHCO3, 10 mM HEPES; pH 7.4). Aliquots of KRB supplemented with 0.01% (w/v) BSA were added to the cells immediately prior to hypoxia. A Billups-Rothenberg modular incubator chamber (Billups-Rothenberg, Inc.; DelMar, Calif.) was used to produce an in vitro Hypoxia/Reoxygenation challenge. In essence, cells were placed in the sealed chamber and the chamber was flushed with 100% nitrogen for 5 min at a flow rate of 25 liter/min. After closing all sealable connectors, the chamber was transferred to an incubator and the cells in the chamber were subjected to a period of hypoxia at 37° C. Reoxygenation was initiated by opening the chamber and then replacing the KRB with fresh DMEM medium. The cells were then cultured in the incubator under an atmosphere of 5% (v/v) CO2 in air at 37° C. for designed periods.
(§3) The cell viability was measured using the MTT colorimetric assay, which was based on the conversion of MTT to formazan crystals by mitochondrial dehydrogenase. Briefly, H9c2 cells were seeded in 96-well plates at 1×10^4 cells/well and incubated at 37° C. for 48 h. The cells were then treated with DMSO (H/R control), diazoxide (50 μM). Compounds A-G (at two concentrations of 12.5 μM or 25 μM) and incubated under hypoxia condition. The cells without any treatment and incubated under normoxia condition were used as normal control. At the end of the treatments, […] MTT (5 mg/ml) was added for 4 h and then […] MTT buffer (10% SDS solution, pH7.4) was added to each well. After overnight incubation and 30 s vibration, the absorbance was read at 490 nm wavelength. Results were expressed as the ratio of the number of viable cells with treatments relative to that of the normoxia control.
Data were expressed as mean±SEM. One-way ANOVA with multiple comparisons using the Dunnett's Multiple Comparison Test was used to analyze differences between groups. All statistical analysis was performed using Prism 5 for Windows version 5.00 (GraphPad software, Inc., La Jolla, Calif. 92037 USA). Differences were considered significant if p<0.05.
(Tetrazolium dyes change colour on reduction, which living cells bring about.)

In data set [2] the test system is H9c2 cells. The data set is described as follows: Cytotoxicity study in normoxia condition, MTT cell viability assay. The format is cell-based, rat. The protocol: as §1, §2, §3
The cell line and reagents used, and cell culture methods, cell viability assay and statistical analysis employed were described in Example 2.
The cells were treated with desired concentrations of compounds A-G for 3 h, then the medium thereof was replaced with DMEM medium with 10% fetal bovine serum, 1% glutamine, 50 U/ml penicillin and […] streptomycin. The culture atmosphere for normaxia condition was 95% air with 5% carbon dioxide (CO2) at 37.0° C. The cells were then cultured in the incubator for designed periods. The cells without any treatment and incubated under normoxia condition were used as positive control.
Results were expressed as the ratio of the number of viable cells with treatments relative to that of the positive control.

With “3-O-[β-D-glucopyranosyl(1→2)-β-D-glucopyranosyl]-3β,12β,20(R), 24(S)-tetrahydroxydammar-25-ene and its 24(R) epimer [Compound C]”, the “protective effect compared with the positive control drug” value in the data set on H9c2 cells [1] (12.5 or 25 μM) was “higher than the positive control drug”. In addition, in the data set on H9c2 cells [1], the “order of cardioprotective effects” value is “G>F>C>A>D>B, E”. Moreover, the “cytotoxicity under normoxia condition” value in the data set on H9c2 cells [2] (equivalent dosages) is “no significant cytotoxicity”.

As for “3-O-[β-D-glucopyranosyl(1→2)-β-D-glucopyranosyl]-3β,12β,20(R), 25-tetrahydroxydammar-23-ene [Compound D]”, the “viability of cardiomyocyte cells after H/R (ratio of viable cells relative to normoxia control)” value in the data set with H9c2 cells [1] (25 μM, 3 h pretreatment) worked out at 61.06±0.30%. For the same compound, the “protective effect compared with the positive control drug” value in the data set on H9c2 cells [1] (12.5 or 25 μM) was “higher than the positive control drug”. Further, the “order of cardioprotective effects” value in the data set with H9c2 cells [1] is listed as “G>F>C>A>D>B, E”. The “cytotoxicity under normoxia condition” value in the data set with H9c2 cells [2] (equivalent dosages) was “no significant cytotoxicity”.

As for “3-O-[β-D-glucopyranosyl(1→2)-β-D-glucopyranosyl]-3β,12β,20(S),25-tetra-hydroxydammar-23-ene [Compound B]”, the “order of cardioprotective effects” value in the data set on H9c2 cells [1] is on record as “G>F>C>A>D>B, E”.

With “3-O-[β-D-glucopyranosyl(1→2)-β-D-glucopyranosyl]-3β,12β,20(S), 24(S)-tetrahydroxydammar-25-ene and its 24(R) epimer [Compound A]”, the “protective effect compared with the positive control drug” value with H9c2 cells [1] (12.5 or 25 μM) is “higher than the positive control drug”. For the same compound, the “order of cardioprotective effects” value in the data set with H9c2 cells [1] is reported as “G>F>C>A>D>B, E”. Moreover, the “cytotoxicity under normoxia condition” value was “no statistically significant cytotoxicity” in the data set on H9c2 cells [2] (12.5 μM, vs untreated control); “no statistically significant cytotoxicity” in the data set with H9c2 cells [2] (25 μM, vs untreated control); “no significant cytotoxicity” with H9c2 cells [2] (equivalent dosages).

Consider “3-O-[β-D-glucopyranosyl(1→2)-β-D-glucopyranosyl]-20(R), 24(S)-epoxydammarane-3β,12β-triol and its 24(R) epimer [Compound E]”, for which the “order of cardioprotective effects” value in the data set with H9c2 cells [1] was “G>F>C>A>D>B, E”. Moreover, the “cytotoxicity under normoxia condition” value with H9c2 cells [2] (equivalent dosages) was “no significant cytotoxicity”.

Consider `CC1=NS(=O)(=O)c2cc(Cl)ccc2N1` [Positive 50, diazoxide, reference compound], for which, in the data set with H9c2 cells [1] (50 μM positive control, p<0.001), the “viability of cardiomyocyte cells after H/R (ratio of viable cells relative to normoxia control)” value turned out to be 61.69±0.37%.

For `CC(C)=CCC[C@](C)(O)[C@H]1CC[C@]2(C)[C@@H]1[C@H](O)C[C@@H]1[C@@]3(C)CC[C@H](O[C@@H]4O[C@H](CO)[C@@H](O)[C@H](O)[C@H]4O[C@@H]4O[C@H](CO)[C@@H](O)[C@H](O)[C@H]4O)C(C)(C)[C@@H]3CC[C@]12C` [Rg3, reference compound], the “protective effect against I/R injury induced by hypoxia/reoxygenation, compared with H/R control group” value in the data set on H9c2 cells [1] (12.5 or 25 μM) is “have protective effect”.
